Target: T1, human farnesyl pyrophosphate synthase (hFPPS) (Homo sapiens, UniProt P14324)
T1 construct: gene FDPS; purified protein, homodimer, subunit 42 kDa
T1 sequence (P14324 1-353 isoform P14324-2): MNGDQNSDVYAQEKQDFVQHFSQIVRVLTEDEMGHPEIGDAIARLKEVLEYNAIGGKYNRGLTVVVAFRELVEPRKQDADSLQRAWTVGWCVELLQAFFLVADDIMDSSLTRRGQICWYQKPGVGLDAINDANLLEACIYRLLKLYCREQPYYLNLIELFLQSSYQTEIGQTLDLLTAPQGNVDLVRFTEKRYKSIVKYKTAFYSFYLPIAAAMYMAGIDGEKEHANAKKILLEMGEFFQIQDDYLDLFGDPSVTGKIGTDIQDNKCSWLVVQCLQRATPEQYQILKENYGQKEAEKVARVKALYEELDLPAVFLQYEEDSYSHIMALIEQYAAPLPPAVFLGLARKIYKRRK
Test: ITC, one-site model
Format: binding
Source text: ITC, one-site model on human farnesyl pyrophosphate synthase (hFPPS)

Structure (SMILES): O=P(O)(O)C(Nc1cncc(-c2ccc(OC3CC3)cc2)c1)P(=O)(O)O [JDS05120]
- Kd: 0.12 ± 0.036 µM

From PMC5643135, “Crystallographic and thermodynamic characterization of phenylaminopyridine bisphosphonates binding to human farnesyl pyrophosphate synthase” (PLoS ONE, 2017)
